Experimental data taken from ChEMBL document CHEMBL1154799, “Asymmetrically substituted cationic indole- and fluorene porphyrins inhibit tumor proliferation in small intestinal neuroendocrine tumors and medullary thyroid carcinomas” (Eur J Med Chem, 2010).
Calls of active or inactive are those of the source. No cut-off for these calls is given here.

Experiments:
[1] = (§1) Cytotoxicity against human KRJ-I cells assessed as decrease in cell viability after 72 hrs by WST-1 assay; format: functional, cell-based
[2] = tested on: KRJ-I; assay: as §1; format: functional, cell-based
[3] = Antiproliferative activity against human HF-SAR cells at 10 uM after 72 hrs by WST-1 assay; format: cell-based
[4] = tested on: KRJ-I; assay: Cytotoxicity against human KRJ-I cells assessed as induction of protease activity at 10 uM after 72 hrs by luminescence based assay; format: functional, cell-based
[5] = (§2) Cytotoxicity against human MTC-SK cells assessed as decrease in cell viability after 72 hrs by WST-1 assay; format: functional, cell-based
[6] = tested on: MTC-SK; assay: as §2; format: functional, cell-based
[7] = tested on: Nucleic Acid; assay: Binding affinity to calf thymus DNA assessed as change in melting temperature; format: nucleic-acid assay; conditions: Bos taurus
[8] = tested on: MTC-SK; assay: Antiproliferative activity against human MTC-SK cells at 10 uM after 72 hrs by WST-1 assay; format: functional, cell-based
[9] = Cytotoxicity against human MTC-SK cells assessed as induction of protease activity at 10 uM after 72 hrs by luminescence based assay; format: functional
[10] = (§3) Cytotoxicity against human KRJ-I cells assessed as decrease in cell viability at 10 uM after 72 hrs by WST-1 assay; format: functional
[11] = tested on: KRJ-I; assay: as §3; format: functional
[12] = Cytotoxicity against human HF-SAR cells assessed as decrease in cell viability at 10 uM after 72 hrs by WST-1 assay; format: cell-based
[13] = tested on: Nucleic Acid; assay: Binding affinity to oligonucleotide d(CGTACG)2 by DNA intercalation assay; format: nucleic-acid assay
[14] = tested on: KRJ-I; assay: Antiproliferative activity against human KRJ-I cells at 10 uM after 72 hrs by WST-1 assay; format: functional, cell-based
[15] = (§4) Cytotoxicity against human MTC-SK cells assessed as decrease in cell viability at 10 uM after 72 hrs by WST-1 assay; format: functional
[16] = tested on: MTC-SK; assay: as §4; format: functional
[17] = (§5) Antiproliferative activity against human KRJ-I cells after 72 hrs by WST-1 assay; format: functional, cell-based
[18] = tested on: KRJ-I; assay: as §5; format: functional, cell-based
[19] = (§6) Antiproliferative activity against human MTC-SK cells after 72 hrs by WST-1 assay; format: functional, cell-based
[20] = tested on: MTC-SK; assay: as §6; format: functional, cell-based

| Structure (SMILES) | IC50 [1] [µM] | Activity [2] | Activity [3] | Activity [4] | IC50 [5] [µM] | Activity [6] | Activity [7] | Activity [8] | Activity [9] [%] | Activity [10] [%] | Activity [11] | Activity [12] | Activity [13] | Activity [14] | Activity [15] [%] | Activity [16] | IC50 [17] [µM] | Activity [18] | IC50 [19] [µM] | Activity [20] |
| --- | --- | --- | --- | --- | --- | --- | --- | --- | --- | --- | --- | --- | --- | --- | --- | --- | --- | --- | --- | --- |
| C[n+]1ccc(-c2c3nc(c(-c4cc(-c5ccc6c(c5)C(C)(C)c5ccccc5-6)c[n+](C)c4)c4ccc([nH]4)c(-c4cc[n+](C)cc4)c4nc(c(-c5cc(-c6ccc7c(c6)C(C)(C)c6ccccc6-7)c[n+](C)c5)c5ccc2[nH]5)C=C4)C=C3)cc1.[Cl-].[Cl-].[Cl-].[Cl-] | 22.7 | Dose-dependent effect | Active | inactive | 22.7 | Dose-dependent effect | Active | Active | 46 | 95 | Active | Not Active | Active | Active | 91 | Active | 22.7 | Dose-dependent effect | 22.7 | Dose-dependent effect |
| C[n+]1ccc(-c2c3nc(c(-c4cc[n+](C)cc4)c4ccc([nH]4)c(-c4cc[n+](C)cc4)c4nc(c(-c5ccc(-c6cn(S(=O)(=O)c7ccccc7)c7ccccc67)cc5)c5ccc2[nH]5)C=C4)C=C3)cc1.[Cl-].[Cl-].[Cl-] | 10 | Dose-dependent effect | Active | inactive | 10 | Dose-dependent effect | Active | Active | 64 | 37 | Active | Not Active | – | Active | 74 | Active | 10 | Dose-dependent effect | 10 | Dose-dependent effect |
| C[n+]1ccc(-c2c3nc(c(-c4cc[n+](C)cc4)c4ccc([nH]4)c(-c4cc(-c5ccc6c(c5)C(C)(C)c5ccccc5-6)c[n+](C)c4)c4nc(c(-c5cc[n+](C)cc5)c5ccc2[nH]5)C=C4)C=C3)cc1 | – | – | – | – | – | – | – | – | – | – | – | – | Active | – | – | – | – | – | – | – |
